Results reported in patent publication US6803457B1, “Compounds for the treatment of ischemia” (Pfizer, Inc., priority 1999, dated 2004).

Compound CNC(=O)[C@H]1O[C@@H](n2cnc3c(NCc4cc(Cl)ccc4OCc4snnc4C)ncnc32)[C@H](O)[C@@H]1N [Example 33, (2S,3S,4R,5R)3-Amino-5-{6-[5-chloro-2-(4-methyl-[1,2,3]thiadiazol-5-ylmethoxy)benzylamino]purin-9-yl}-4-hydroxytetrahydrofuran-2-carboxylic acid methylamide] has a melting point of 107 to 110 °C.
